According to PubChem BioAssay (NCI):
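Compound exposure: 48 hours, 5 concentrations, 96-well plates. Here, GI50 denotes the concentration required for 50% inhibition of growth. At the TGI there is no net growth.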

Tests used:
Test in all cases: DTP human tumour cell line panel, 48 h
ACHN renal = tested on: ACHN renal
MALME-3M melanoma = tested on: MALME-3M melanoma
PC-3 prostate = tested on: PC-3 prostate
SR leukemia = tested on: SR leukemia
SK-OV-3 ovarian = tested on: SK-OV-3 ovarian
NCI/ADR-RES ovarian = tested on: NCI/ADR-RES ovarian
MOLT-4 leukemia = tested on: MOLT-4 leukemia
MDA-N = tested on: MDA-N
SK-MEL-5 melanoma = tested on: SK-MEL-5 melanoma
IGROV1 ovarian = tested on: IGROV1 ovarian
HCT-15 colon = tested on: HCT-15 colon

Row | SMILES | TGI (ACHN renal) | TGI (MALME-3M melanoma) | TGI (PC-3 prostate) | TGI (SR leukemia) | TGI (SK-OV-3 ovarian) | TGI (NCI/ADR-RES ovarian) | TGI (MOLT-4 leukemia) | TGI (MDA-N) | TGI (SK-MEL-5 melanoma) | TGI (IGROV1 ovarian) | TGI (HCT-15 colon) | GI50 (ACHN renal) | GI50 (PC-3 prostate) | GI50 (SK-OV-3 ovarian)
1 | C=C1C(=O)OC2/C=C(\C)CC/C=C(/C)CC(OC(=O)/C(=C/CO)CO)C12 (configuration not stated) | 33.5 µM | 42.2 µM | > 100 µM | > 100 µM | > 100 µM | > 100 µM | > 100 µM | 47.2 µM | 31.2 µM | > 100 µM | 37.7 µM | – | – | –
2 | O=C(CC(=O)c1ccncc1)c1ccccc1 | > 100 µM | > 89.2 µM | > 100 µM | > 100 µM | > 100 µM | 69.3 µM | > 100 µM | > 100 µM | > 100 µM | > 100 µM | > 100 µM | – | – | –
3 | COC(=O)N1CC[C@@H]2CCC=C(c3cccc4c3OCO4)[C@@H]21 | > 100 µM | > 100 µM | > 100 µM | > 100 µM | > 100 µM | > 100 µM | > 100 µM | > 100 µM | > 100 µM | > 100 µM | > 100 µM | – | – | –
4 | O=C(O)CC(NC(=O)C(F)(F)F)C(=O)NC1Cc2ccccc2OC1=O (configuration not stated) | > 100 µM | > 100 µM | > 100 µM | > 100 µM | > 100 µM | > 100 µM | > 100 µM | > 100 µM | > 100 µM | > 100 µM | > 100 µM | – | – | –
5 | COc1ccc2nc(-c3ccc(OC(=O)N(C)C)cc3)cn2c1 | > 100 µM | > 100 µM | > 100 µM | > 100 µM | > 100 µM | > 100 µM | > 100 µM | > 100 µM | > 100 µM | > 100 µM | – | – | – | –
6 | CCCCCCc1nn2c(-c3ccc(C)cc3)nnc2s1 | > 100 µM | – | > 100 µM | – | > 100 µM | > 100 µM | > 100 µM | > 100 µM | > 100 µM | – | > 100 µM | – | – | –
7 | CSCCC(NC(=O)C(Cc1ccccc1)NC(=O)CNC(=O)CNC(=O)C(N)Cc1ccc(O)cc1)C(=O)O (configuration not stated) | – | > 100 µM | – | – | > 100 µM | > 100 µM | > 100 µM | – | > 100 µM | > 100 µM | > 100 µM | – | – | –
8 | Cc1cccc2c1Oc1cc(Cl)ccc1C2NC(=O)CCN1CCCCC1 (configuration not stated) | – | – | 30.5 µM | 35 µM | – | 32 µM | 34.3 µM | 33.1 µM | 30 µM | – | 32.7 µM | – | – | –
9 | NS(=O)(=O)c1nnc(NC(=O)CCC(=O)O)s1 | > 100 µM | > 100 µM | – | > 100 µM | > 100 µM | > 100 µM | > 100 µM | > 100 µM | > 100 µM | – | > 100 µM | – | – | –
10 | Nn1c(CNc2ccc(-c3nnc(Nc4ccc(Cl)cc4)n3N)cc2)nnc1Nc1ccc(Cl)cc1 | > 100 µM | > 100 µM | > 100 µM | – | > 100 µM | > 100 µM | > 100 µM | > 100 µM | > 100 µM | > 100 µM | > 100 µM | – | – | –
11 | CC1=CC(c2ccccc2)OP1(=O)c1ccccc1 (configuration not stated) | > 100 µM | > 100 µM | > 100 µM | > 100 µM | > 100 µM | > 100 µM | – | > 100 µM | > 100 µM | > 100 µM | > 100 µM | – | – | –
12 | CSc1ccc2c(c1)c(CCN)c(C)n2Cc1ccc(Cl)c(Cl)c1 | 3.08 µM | – | 3.11 µM | – | 3.09 µM | – | – | – | – | – | – | 1.59 µM | 1.67 µM | 1.69 µM
13 | O=C(N/N=C(/COc1cccc(Cl)c1)N=Cc1ccncc1)c1ccncc1 | > 100 µM | > 100 µM | > 100 µM | – | > 100 µM | > 100 µM | > 100 µM | > 100 µM | – | > 100 µM | > 100 µM | – | – | –
14 | NCCCNCCSSCc1ccccc1CSSCCNCCCN | > 100 µM | > 100 µM | – | – | > 100 µM | – | > 100 µM | – | > 100 µM | > 100 µM | > 100 µM | – | – | –
15 | N#CC12COC3(CCCCC3C1(C#N)C#N)OC2=N (configuration not stated) | 30.1 µM | 35.6 µM | 27.3 µM | – | > 100 µM | > 100 µM | 79.7 µM | 25.5 µM | 23.5 µM | 27.7 µM | – | – | – | –
16 | O=C(NC(=O)c1cn(CCN2CCNCC2)c(=O)[nH]c1=O)OCc1ccccc1 | > 100 µM | > 100 µM | – | > 100 µM | > 100 µM | – | > 100 µM | – | > 100 µM | – | > 100 µM | – | – | –
17 | CC1=C(C)C(=O)OC(C(C)(O)C2(O)CCC3(O)C4CC(Cl)C5(O)C(O)C=CC(=O)C5(C)C4CCC32C)C1 (configuration not stated) | > 100 µM | > 100 µM | > 100 µM | 37.1 µM | > 100 µM | – | 32.8 µM | > 100 µM | – | > 100 µM | > 100 µM | – | – | –
18 | O=C(CSc1nc2ccc(I)cc2c(=O)n1Cc1ccccc1)N/N=C/c1ccccc1 | > 100 µM | – | 28.6 µM | > 100 µM | 31.6 µM | 92 µM | > 100 µM | > 100 µM | > 100 µM | 36.1 µM | > 100 µM | – | – | –
19 | CCCS(=O)(=O)O | > 100 µM | > 100 µM | > 100 µM | > 100 µM | > 100 µM | > 100 µM | > 100 µM | – | > 100 µM | > 100 µM | > 100 µM | – | – | –
20 | COc1cc(Cn2c3c(c4c(CN(C)C)c(O)ccc42)C(=O)c2ccccc2C3=O)cc(OC)c1 | 29.6 µM | 76.2 µM | 35.4 µM | 36.5 µM | 48.3 µM | 34.8 µM | 88.9 µM | 31.6 µM | 26 µM | – | 28.2 µM | – | – | –
21 | C=CCN1CCC(OC(=O)C(O)(/C=C\CC)C2CCCC2)CC1 (configuration not stated) | > 100 µM | > 100 µM | > 100 µM | – | > 100 µM | > 100 µM | > 100 µM | > 100 µM | > 100 µM | > 100 µM | > 100 µM | – | – | –
22 | Cc1ccc2nc3c(C(=O)NCCN(C)C)cccc3cc2c1 | – | 4.58 µM | – | – | 6.66 µM | 4.25 µM | – | – | 3.41 µM | 6.5 µM | 4.91 µM | – | – | –
23 | CCN(CC)CCNc1ccc([N+](=O)[O-])c2nc3ccccc3c(N)c12 | 3.75 µM | – | 1.74 µM | 2.39 µM | – | 1.94 µM | 2.23 µM | 2.14 µM | 1.1 µM | > 10 µM | 1.75 µM | – | – | –
24 | Cc1c2c(c(C)c3c[n+](C)ccc13)Oc1ccccc1O2 | > 100 µM | 19.1 µM | > 76.7 µM | – | > 84.5 µM | > 100 µM | 23.8 µM | 53.5 µM | 42.5 µM | 50 µM | > 100 µM | – | – | –
